Data: the supplement of paper PMC4858399
Structures can show the parent of a compound that is named as a salt.

What was measured:
[1] = tested on: Caenorhabditis elegans N2; assay: lowest effective concentration for larval growth inhibition (size below effect threshold); higher = less potent; conditions: exposure time 48 h
Outline: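 Log-transformed well means of per-worm extinction, read as size on a Biosort, came from 50 C. elegans N2 L1 larvae per 96-well grown 48 h at 20°C in K-medium with killed bacteria, 1% DMSO and 0.5 to 200 µM chemical. The lowest effective concentration is the first dose at which the plate-adjusted mean size is below the threshold and stays below it at every higher dose. The threshold is 5.665.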

[2] = tested on: Caenorhabditis elegans N2; assay: mean nematode size ln(EXT) after 48 h, plate-adjusted (DMSO control set to 6) (ln(EXT), control-adjusted); higher = larger nematodes / less growth inhibition; conditions: exposure time 48 h
Outline: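 Synchronised C. elegans N2 L1 larvae were grown for 48 h at 20°C in K-medium containing killed OP50, 1% DMSO and 0.5–200 µM chemical, at 50 per well and 4–6 wells per treatment. The Biosort recorded extinction for each worm, and a growth model removed debris. Worm size was obtained by natural-logging these values and averaging them per well. For plate adjustment, the vehicle control mean was subtracted and 6 was added.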

SMILES | lowest effective concentration [1] | mean nematode size ln(EXT) (ln) ([2]; 0.5 µM) | mean nematode size ln(EXT) (ln) ([2]; 1 µM) | mean nematode size ln(EXT) (ln) ([2]; 5 µM) | mean nematode size ln(EXT) (ln) ([2]; 10 µM) | mean nematode size ln(EXT) (ln) ([2]; 50 µM) | mean nematode size ln(EXT) (ln) ([2]; 100 µM) | mean nematode size ln(EXT) (ln) ([2]; 200 µM)
Cc1cc(=O)[nH]c(=S)[nH]1 [Methylthiouracil] | > 200 µM | 6.01 | 5.97 | 5.94 | 5.97 | 6 | 6.12 | 5.98
CSc1nnc(C(C)(C)C)c(=O)n1N [Metribuzin] | > 200 µM | 5.83 | 5.88 | 5.91 | 5.85 | 5.84 | 5.87 | 5.78
CCCCOC(=O)c1ccccc1C(=O)O [Monobutyl phthalate] | > 200 µM | 6.02 | 5.99 | 6.01 | 5.99 | 5.97 | 5.95 | 5.97
CNC(=O)/C=C(\C)OP(=O)(OC)OC [Monocrotophos] | > 200 µM | 5.81 | 5.76 | 5.74 | 5.78 | 5.79 | 5.77 | 6.07
C=CC(=C)CCC=C(C)C [Myrcene] | > 200 µM | 5.79 | 5.75 | 5.76 | 5.75 | 5.73 | 5.71 | 5.71
C=CC(=O)NCNC(=O)C=C [N,N'-Methylenebis(acrylamide)] | > 200 µM | 6.06 | 6.06 | 6.06 | 6.01 | 6 | 6.05 | 5.83
Cc1ccc(N(C)C)cc1 [N,N,4-Trimethylaniline] | > 200 µM | 5.82 | 5.87 | 5.94 | 5.79 | 5.76 | 5.72 | 5.73
CC(O)CN(CCN(CC(C)O)CC(C)O)CC(C)O (stereo unspecified) [N,N,N',N'-Tetrakis(2-Hydroxypropyl)ethylenediamine] | 50 µM | 5.67 | 5.6 | 5.71 | 5.67 | 5.01 | 5.4 | 5.66
CCN(CC)CCO [N,N-Diethylethanolamine] | > 200 µM | 5.86 | 5.89 | 5.91 | 5.81 | 5.83 | 5.76 | 5.78
CN(C)c1ccccc1 [N,N-Dimethylaniline] | > 200 µM | 5.97 | 6.02 | 6.03 | 6.01 | 6.08 | 6.02 | 5.73
CN(C)C=O [N,N-Dimethylformamide] | > 200 µM | 5.86 | 5.92 | 5.88 | 5.84 | 6.01 | 5.79 | 5.78
CCCCCCOC(=O)CC(CC(=O)OCCCCCC)(OC(=O)CCC)C(=O)OCCCCCC [N-Butyryl tri-N-hexyl citrate] | > 200 µM | 5.93 | 5.96 | 5.91 | 5.98 | 6.15 | 5.75 | 5.83
CCNc1ccccc1 [N-Ethyl aniline] | > 200 µM | 5.68 | 5.67 | 5.68 | 5.67 | 5.52 | 5.56 | 5.67
CCNc1cccc(C)c1 [N-Ethyl-3-methylaniline] | 200 µM | 5.68 | 5.72 | 5.59 | 5.59 | 5.63 | 5.72 | 5.63
CN1CCCC1=O [N-Methyl-2-pyrrolidone] | > 200 µM | 5.94 | 5.92 | 5.89 | 5.81 | 5.8 | 5.89 | 5.84
CNC(C)=O [N-Methylacetamide] | > 200 µM | 6.09 | 6.1 | 6.07 | 6.02 | 6.03 | 6.07 | 5.84
CCCCN(CCCC)N=O [N-Nitrosodi-N-butylamine] | > 200 µM | 6.12 | 6.07 | 5.93 | 5.97 | 5.99 | 6.08 | 5.95
CCCN(CCC)N=O [N-Nitrosodipropylamine] | > 200 µM | 5.88 | 5.93 | 5.92 | 5.84 | 5.87 | 5.72 | 5.97
C=CN1CCCC1=O [N-Vinyl-2-pyrrolidone] | > 200 µM | 6.07 | 5.85 | 5.84 | 5.87 | 5.89 | 4.87 | 5.82
CCCCCCCCC(=O)O [Nonanoic acid] | > 200 µM | 5.86 | 5.94 | 5.94 | 5.91 | 5.89 | 5.93 | 5.83
CCCCCCCC=O [Octanal] | > 200 µM | 6 | 5.82 | 5.94 | 5.77 | 5.88 | 5.84 | 5.77
CCCCCCCC(=O)O [Octanoic acid] | > 200 µM | 6 | 5.81 | 5.92 | 5.8 | 5.89 | 5.84 | 5.78
CNC(=O)O/N=C(\SC)C(=O)N(C)C [Oxamyl] | > 200 µM | 6.13 | 6.48 | 6.09 | 6.33 | 6.42 | 6.43 | 5.75
C[N+](C)(C)CC1CO1 (stereo unspecified) [Oxiranemethanaminium, N,N,N-trimethyl-, chloride] | 200 µM | 5.78 | 5.84 | 5.81 | 5.54 | 5.83 | 5.84 | 5.66
COc1cnc(OC)n2nc(NS(=O)(=O)c3c(OCC(F)F)cccc3C(F)(F)F)nc12 [Penoxsulam] | > 200 µM | 6.17 | 6.06 | 5.98 | 6.03 | 6.01 | 6.02 | 5.72
CCCCCCCCCCCCCCC [Pentadecane] | > 200 µM | 5.88 | 5.95 | 5.94 | 6.03 | 5.95 | 5.87 | 5.74
CCCCCOC(C)=O [Pentyl acetate] | > 200 µM | 5.91 | 5.91 | 5.94 | 6 | 5.89 | 5.89 | 5.7
